The record followed here is PMC9095880, “AIMP2-DX2 provides therapeutic interface to control KRAS-driven tumorigenesis” (Nature Communications, 2022).

Each structure is given as a SMILES string.

This test concerns the target T1, AIMP2 (Homo sapiens, UniProt Q13155).
T1 construct: purified AIMP2, in vitro pull-down
T1 sequence (Q13155 1-320): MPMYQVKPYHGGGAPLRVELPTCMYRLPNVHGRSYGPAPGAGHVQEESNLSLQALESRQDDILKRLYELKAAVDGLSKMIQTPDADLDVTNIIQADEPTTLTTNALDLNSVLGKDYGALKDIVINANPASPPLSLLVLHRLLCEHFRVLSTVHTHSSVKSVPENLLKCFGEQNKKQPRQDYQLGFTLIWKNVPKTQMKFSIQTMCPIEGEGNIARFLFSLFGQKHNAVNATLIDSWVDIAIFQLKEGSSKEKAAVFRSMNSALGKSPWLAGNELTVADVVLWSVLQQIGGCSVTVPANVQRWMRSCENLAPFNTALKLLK
The test can be described thus: in vitro pull-down with purified AIMP2. To be noted: no binding to cellular AIMP2 in immunoprecipitation.

Take `COc1ccc(-c2ccc(CN(C(=O)c3cnc4ccccc4n3)c3ccccc3F)s2)cc1C` [BC-DXI-32982]: the “in vitro pull-down with purified AIMP2” value is recorded as “DXI showed binding to the purified AIMP2 in an in vitro pull-down assay”.
